Measured values as given in patent US20230372542A1, “COMPOSITION AND METHODS FOR MODULATING TCF4 GENE EXPESSION AND TREATING PITT HOPKINS SYNDROME” (The Regents of the University of California, priority 2020, published 2023).

Tests used:
Assay type in all cases: cell-based, human
[1] = system: NPCs; assay: RT-qPCR gene expression in NPCs after Wnt signaling manipulation
Description: Real time quantitative PCR. Total RNA was extracted using RNeasy Mini Plus kit (Qiagen), followed by DNase I treatment on the column, as per the manufacturer's recommendations. Two and a half micrograms of total RNA were reverse transcribed into cDNA using the Superscript III First-Strand Reverse Transcription System (Thermo Fisher Scientific). Real-time quantitative PCR (RT-qPCR) was performed using pre-validated FAM-MGB TaqMan probes (Thermo Fisher Scientific) and the TaqMan universal master mix II without UNG (Thermo Fisher Scientific) on a CFX Connect Real Time PCR detection system (Bio-Rad), with the following cycling parameters: 94° C. for 3 min, followed by 40 cycles of 94° C. for 30 s and 68° C. for 1 min. Amplification and denaturation curves for all probes were analyzed to verify amplification of just one amplicon. All RT-qPCR analyses were conducted using RNA extracted from at least 3 independent biological samples per subject/condition, and normalized to the following endogenous control genes (TBP, ACTB, and GAPDH). Relative expression was calculated using the traditional ΔΔCt method.
(§1) Wnt signaling manipulation. For manipulating the Wnt/β-catenin signaling pathway in NPCs, 200,000 cells were seeded on a 6-well plate, followed by treatment with specific agonist CHIR99021 (1 μM) for 4 days. Controls were treated with DMSO (CHIR diluent) at the same concentration and for the same duration. […] In all cases, treated cells were assayed to measure activity of the Wnt pathway via transfection with the TOP-Flash plasmids described herein.

[2] = system: CtOs or sPOs; assay: Wnt signaling manipulation in brain organoids (size, immunostaining, single cell RNA-Seq)
Description: Immunofluorescence staining. After being cultured in vitro for the required amount of time, CtOs and sPOs were fixed with 4% paraformaldehyde for 4-8 h at 4° C. and cryoprotected in 30% sucrose for 12 h. Organoids were then embedded in TissueTek (Leica Microsystems) and sectioned on a Leica VT1000S cryostat to produce 20 μm sections. For staining, slides were air dried for 10 min, permeabilized in […] for 2 min, and blocked with […] for 1 h at 25° C., followed by incubation with primary antibodies in the same solutions, for 16 h at 4° C. […] After further washes in 1×PBS, slides were counterstained with DAPI solution (1 μg/mL) for 45 min and mounted with ProLong Gold. All images were taken using a Zeiss fluorescence microscope equipped with Apotome (Axio Observer Apotome, Zeiss). For projections of z series stacked images of DCX-stained organoids, the maximum intensity feature of ZEN software (Zeiss) was used, after collecting 10 optical slices per section. For p16^INK4a staining, antigen retrieval was performed by incubating the slides at 60° C. for 10 min in 1× Universal HIER antigen retrieval reagent (Abcam; ab208572), followed by regular immunostaining. For counting SOX2+ cells after p16^INK4a co-staining (FIG. 15J), raw unprocessed images were used, and defined strongly stained cells as those which had average pixel intensity between the upper third quartile and the maximum pixel intensity in each image. Remaining SOX2+ cells were considered weakly stained.
For quantification of cell types in organoid sections, 4 random 100×100 μm regions of interest (ROI) were sampled across each imaged section. The mean number of labeled cells per sample was calculated by first averaging the number of labeled cells in each ROI to produce a mean value of labeled cells per section, and then averaging these mean values across all sections for each subject. […] The average percentage of pixels according to these rules was computed over four 100×100 μm ROIs per section and 6 sections per subject.
Organoid single cell RNA sequencing analysis. CtOs and sPOs were dissociated to produce a single cell suspension via a combination of mechanical dissociation with forceps and enzymatic digestion with Accutase for 10 min. For each library, a total of 15 organoids were dissociated and the resulting cells were pooled and subsequently filtered to isolate single cells for RNA sequencing analysis on the same day. Dissociated cells were pelleted (3 min, 100× g, 4° C.) and resuspended in 10 mL of Neurobasal medium. […] Single cell RNA-seq libraries were prepared using the Chromium Single Cell 3′ v3 Library kit (10× Genomics) according to the manufacturer's protocol. Approximately 20,000 cells were loaded per sample on the Chromium chip. All steps, including GEM (Gel beads in emulsion) preparation, reverse transcription, PCR amplification, and Illumina library construction were carried out on a T100 thermal cycler (Bio-Rad). cDNA extracted from GEMs was cleaned up using MyOne Silane Beads (Thermo Fisher Scientific), PCR-amplified for a total of 10 cycles, and then purified using SPRIselect Reagent Kit (B23317, Beckman Coulter). Next, the cDNA pool was enzymatically fragmented for each library and a double size selection was performed using the SPRIselect Reagent Kit. Finally, Illumina adapters were ligated to prepare libraries for sequencing, followed by another round of double size selection with the SPRIselect Reagent Kit. […] Illumina libraries were quantified using Qubit dsDNA HS Assay Kit (Thermo Fisher Scientific) and size quality control was performed on a High Sensitivity D1000 tapestation (Agilent).

[3] = system: NPCs; assay: p16INK4a+ (senescent) cells in NPCs treated with CHIR99021; details: PTHS NPCs
Description: For immunofluorescence labeling of NPCs, these cells were seeded at a density of 50,000 cells per well of a LabTek II 8-well chambered slide. When cells reached 50% confluency, they were fixed and processed for immunostaining in the same manner as described for iPSC colonies, with the following primary antibodies: rabbit anti-TCF4 (Abcam; ab217668; 1:1000); and chicken anti-vimentin (VIM) (Abcam; ab22651; 1:2000). NPCs were also stained to detect senescence associated P-galactosidase (SA-P-gal), using the CellEvent™ Senescence Green Detection Kit (Thermo Fisher Scientific; C10850) after antigen retrieval as described above. The same method described above for counting weakly and strongly stained SOX2+ cells after p16^INK4a co-staining was applied to NPCs.
as §1, with “herein. For all experiments, 3 biological replicates were used per subject line, and similar results were obtained in at least 3 independent experiments.” for “herein.”

[4] = PTHS NPCs in 2D culture, CHIR (FIG. 16K)

`Cc1c[nH]c(-c2cnc(NCCNc3ccc(C#N)cn3)nc2-c2ccc(Cl)cc2Cl)n1` [CHIR99021] was tested, and the PCDH15 expression ([1]; NPCs, CHIR99021 (FIG. 16N)) was “further reduces its expression”, the “expression of TCF4” value [1, 4] was “increased” and the “expression of TCF4 downstream targets (GADD45G)” value [1, 4] was “increased”. The “expression of pro-proliferative gene HES1” value ([1]; PTHS NPCs, CHIR99021 (FIG. 9J)) was “increased the expression”, the “expression of proneural gene ASCL1” value ([1]; PTHS NPCs, CHIR99021 (FIG. 9J)) was “increased the expression” and the “expression of proneural gene NEUROD1” value ([1]; PTHS NPCs, CHIR99021 (FIG. 9J)) was “increased the expression”. For the same compound, the SOX3 expression ([1]; PTHS progenitors, CHIR99021 (FIG. 10F)) was “increased SOX3 expression”, the “percentage of subpallial-type neural progenitors” value ([2]; CHIR99021-treated CtOs (FIG. 16H)) was “increased percentage” and the “progenitor population (single cell RNA-Seq)” value ([2]; CHIR99021-treated PTHS CtOs and sPOs (FIGS. 16G-H)) was “increase in the progenitor population”. The neural rosettes ([2]; PTHS CtOs, CHIR99021) was “reappearance of conspicuous neural rosettes”, the “NPC content (SOX2+ cells)” value ([2]; PTHS CtOs, CHIR99021 1 μM (FIG. 9K)) was “significant increase” and the organoid size ([2]; PTHS CtOs, CHIR99021 1 μM (FIG. 16F)) was “significant increase in organoid size”. The “TCF4 levels in neural progenitors of the organoid's 3D structure” value ([2]; PTHS sPOs, CHIR (FIG. 16J)) was “do not exhibit an increase in TCF4 levels”, the “expression of subpallial markers (GAD1, GAD2)” value ([2]; parent and PTHS CHIR99021-treated organoids (FIG. 16I)) was “higher” and the progenitor content ([2]; parent organoids, CHIR (FIG. 9K)) was “does not lead to an increase”. The organoid size ([2]; parent organoids, CHIR (FIG. 16F)) was “does not lead to an increase” and the “percentage of p16INK4a senescent cells” value [3] was “decreased the percentage”.
